Reference: patent US11434221B2, “Pyrazine-4-carbamate or -urea derivatives as herbicides” (Syngenta Participations AG, priority 2017, dated 2022)

Columns and labels:
Format in all cases: in vivo
Design in all cases: key: 5=total damage to plant; 0=no damage to plant
[1] = system: Alopecurus myosuroides (ALOMY); test: Post-emergence herbicidal activity, glasshouse pot test; conditions: Rate 1000 g/ha; sprayed after 8 days cultivation; evaluated after 13 days
Procedure: (§1) Seeds of a variety of test species were sown in standard soil in pots: Triticum aestivium (TRZAW), Avena fatua (AVEFA), Alopecurus myosuroides (ALOMY), Echinochloa crus-galli (ECHCG), Lolium perenne (LOLPE), and Setaria faberi (SETFA). After 8 days cultivation (post-emergence) under controlled conditions in a glasshouse (at 24/16° C., day/night; 14 hours light; 65% humidity), the plants were sprayed with an aqueous spray solution derived from the formulation of the technical active ingredient in acetone/water (50:50) solution containing 0.5% Tween 20 (polyoxyethelyene sorbitan monolaurate, CAS RN 9005-64-5). The test plants were then grown in a glasshouse under controlled conditions (at 24/16° C., day/night; 14 hours light; 65% humidity) and watered twice daily. After 13 days, the test was evaluated (5=total damage to plant; 0=no damage to plant).

Setaria faberi (SETFA) [2] = test: as above; conditions: Rate 1000 g/ha; sprayed after 8 days cultivation; evaluated after 13 days
Procedure: as §1

[3] = system: Echinochloa crus-galli (ECHCG); test: as above; conditions: Rate 1000 g/ha; sprayed after 8 days cultivation; evaluated after 13 days
Procedure: as §1

Avena fatua (AVEFA) [4] = test: as above; conditions: Rate 1000 g/ha; sprayed after 8 days cultivation; evaluated after 13 days
Procedure: as §1

[5] = system: Triticum aestivium (TRZAW); test: as above; conditions: Rate 1000 g/ha; sprayed after 8 days cultivation; evaluated after 13 days
Procedure: as §1

Lolium perenne (LOLPE) [6] = test: as above; conditions: Rate 1000 g/ha; sprayed after 8 days cultivation; evaluated after 13 days
Procedure: as §1

[7] = system: Alopecurus myosuroides (ALOMY); test: Pre-emergence herbicidal activity, glasshouse pot test; conditions: Rate 1000 g/ha; sprayed one day after sowing; evaluated after 13 days
Procedure: as §1, with “After” for “After 8 days”, “for one day (pre-emergence)” for “(post-emergence)”

Setaria faberi (SETFA) [8] = test: as above; conditions: Rate 1000 g/ha; sprayed one day after sowing; evaluated after 13 days
Procedure: as §1, with “After” for “After 8 days”, “for one day (pre-emergence)” for “(post-emergence)”

[9] = system: Echinochloa crus-galli (ECHCG); test: as above; conditions: Rate 1000 g/ha; sprayed one day after sowing; evaluated after 13 days
Procedure: as §1, with “After” for “After 8 days”, “for one day (pre-emergence)” for “(post-emergence)”

Avena fatua (AVEFA) [10] = test: as above; conditions: Rate 1000 g/ha; sprayed one day after sowing; evaluated after 13 days
Procedure: as §1, with “After” for “After 8 days”, “for one day (pre-emergence)” for “(post-emergence)”

[11] = system: Triticum aestivium (TRZAW); test: as above; conditions: Rate 1000 g/ha; sprayed one day after sowing; evaluated after 13 days
Procedure: as §1, with “After” for “After 8 days”, “for one day (pre-emergence)” for “(post-emergence)”

Lolium perenne (LOLPE) [12] = test: as above; conditions: Rate 1000 g/ha; sprayed one day after sowing; evaluated after 13 days
Procedure: as §1, with “After” for “After 8 days”, “for one day (pre-emergence)” for “(post-emergence)”

SMILES | Control of weed species after post-emergence application, ALOMY (damage score 0-5) [1] | Control of weed species after post-emergence application, SETFA (damage score 0-5) (Setaria faberi (SETFA) [2]) | Control of weed species after post-emergence application, ECHCG (damage score 0-5) [3] | Control of weed species after post-emergence application, AVEFA (damage score 0-5) (Avena fatua (AVEFA) [4]) | Control of weed species after post-emergence application, TRAZW (damage score 0-5) [5] | Control of weed species after post-emergence application, LOLPE (damage score 0-5) (Lolium perenne (LOLPE) [6]) | Control of weed species after pre-emergence application, ALOMY (damage score 0-5) [7] | Control of weed species after pre-emergence application, SETFA (damage score 0-5) (Setaria faberi (SETFA) [8]) | Control of weed species after pre-emergence application, ECHCG (damage score 0-5) [9] | Control of weed species after pre-emergence application, AVEFA (damage score 0-5) (Avena fatua (AVEFA) [10]) | Control of weed species after pre-emergence application, TRAZW (damage score 0-5) [11] | Control of weed species after pre-emergence application, LOLPE (damage score 0-5) (Lolium perenne (LOLPE) [12])
CC(C)(C)OC(=O)N(C(=O)OC(C)(C)C)c1ncc(-c2cncnc2)nc1C(F)(F)F [Compound H1] | 0 | 5 | 5 | 4 | 0 | 3 | 0 | 4 | 4 | 2 | 0 | 1
Cc1nc(-c2cncc(F)c2)cnc1N(C(=O)OC(C)(C)C)C(=O)OC(C)(C)C [Compound H2, 2-bis(tert-butoxycarbonyl)amino-3-methyl-5-(5-fluoropyrid-3-yl)pyrazine] | 0 | 5 | 5 | 3 | 0 | 2 | 0 | 5 | 4 | 2 | 0 | 2
CC(C)(C)OC(=O)Nc1ncc(-c2cncc(F)c2)nc1C(F)(F)F [Compound H4] | 0 | 5 | 5 | 3 | 1 | 2 | 0 | 5 | 4 | 3 | 0 | 1
CC(C)(C)OC(=O)N(C(=O)OC(C)(C)C)c1ncc(-c2cncc(F)c2)nc1C(F)(F)F [Compound H5] | 0 | 5 | 5 | 3 | 1 | 2 | 0 | 5 | 5 | 2 | 0 | 1
COc1nc(-c2cncc(F)c2)cnc1N(C(=O)OC(C)(C)C)C(=O)OC(C)(C)C [Compound H6] | 0 | 4 | 3 | 2 | 1 | 1 | 0 | 4 | 3 | 1 | 1 | 0
COc1nc(-c2cncc(F)c2)cnc1NC(=O)OC(C)(C)C [Compound H7] | 0 | 5 | 5 | 3 | 1 | 2 | 0 | 5 | 3 | 1 | 0 | 0
CC(C)(C)OC(=O)N(C(=O)OC(C)(C)C)c1ncc(-c2cncc(F)c2)nc1OCc1ccccc1 [Compound H8] | 0 | 1 | 1 | 1 | 0 | 0 | 0 | 2 | 1 | 0 | 0 | 1
Cc1nc(-c2cncc(F)c2)cnc1NC(=O)OC(C)(C)C [Compound H17] | 2 | – | 4 | 3 | 0 | 3 | 0 | 4 | 4 | 2 | 0 | 3
